Experimental data: paper PMC8632718, “Novel Assay Platform to Evaluate Intracellular Killing of Mycobacterium tuberculosis: In Vitro and In Vivo Validation” (Frontiers in Immunology, 2021)
Ends that are not written are not given here.

Assays:
[1] = Analytical RP-HPLC retention time (correlates with overall hydrophobicity); format: physicochemical; parameters: Rt (retention time): unit not given here; conditions: for Rt (retention time): chromatographic measure of hydrophobicity, Waters Acquity UPLC BEH C18 (1.7 µm, 150 × 2.1 mm), flow rate 0.3 ml/min, gradient 2% B 1 min, 2%–100% B 16 min, single peak or first of two 5(6)-Cf isomer peaks; for Rt (retention time), second peak: same column and gradient, second peak due to 5(6)-Cf isomers
Protocol: Purified peptides were analyzed by LC-MS using a Thermo Scientific Q Exactive Focus Hybrid Quadrupole-Orbitrap Mass Spectrometer. For the separation, a Waters Acquity UPLC BEH C18 (1.7 µm, 150 × 2.1 mm) column was used with a flow rate of 0.3 ml/min.
For INH conjugation, representative cell-penetrating (CPP) and antimicrobial peptides (AMP) were chosen. These cationic, amphiphilic peptides are favored in the transportation of various cargos due to their high internalization rate. The used peptide series contains well-known CPPs such as penetratin, transportan, and Tat, frequently studied AMPs such as magainin and buforin, and designed analogs such as Dhvar4, Crot(1-9,38-42), and CM15. Also, a receptor-binding tuftsin analog (OT20), which was reported as a macrophage-targeting peptide, was also applied. […] Mass spectra and RP-HPLC chromatograms are available at https://figshare.com/s/48a023a25068f7658adf, DOI: 10.6084/m9.figshare.16644901. […] To study the internalization rate and intracellular localization, fluorescently labeled analogs were also synthesized. Note that the retention time of Cf-peptide are somewhat higher than unlabeled analogs, and in some cases, two peaks were detected due to the isomeric distribution of 5(6)-Cf molecule.

[2] = test system: MonoMac-6 cells; format: cell-based, human; conditions: 10 µM Cf-peptide, 2 h, LysoTracker, ImageJ JACoP on merged images
Protocol: Cellular uptake and localization were visualized by confocal laser scanning microscopy. MonoMac-6 cells were seeded 1 day prior to treatment into coverslips (thickness 1, Assistent, Karl Hecht GmbH, Sondheim vor der Rhön, Germany) containing a 24-well plate (Sarstedt, Nümbrecht, Germany) for microscopy studies at a density of 7.5 × 10^4 cells/well, in 1 ml complete DMEM medium. The following day, cells were treated with Cf-peptide at a concentration of 10 µM (diluted in serum-free DMEM medium) for 2 h. Lysosomes were stained by LysoTracker Deep Red (Invitrogen, Waltham, MA, USA) for 30 min, and nuclei were stained by Hoechst 33342 solution (Thermo Scientific, USA). After each step, cells were washed three times with serum-free medium, then cells were fixed by 4% paraformaldehyde for 15 min and mounted to microscopy slides with Mowiol 4-88 (Sigma, Budapest, Hungary). Imaging was performed by a Zeiss LSM-710 system (Carl Zeiss microscopy GmbH, Oberkochen, Germany) with a ×40/1.4 Plan-Apochromat oil immersion objective using lasers with the parameters: Cf peptides λex = 488 nm, λem = 541 nm, nuclei λex = 405 nm, λem = 467 nm (Hoechst 33342), lysosomes λex = 633 nm, λem = 720 nm (LysoTrackerTM Deep Red) or λex = 577 nm, λem = 590 nm (LysoTrackerTM Red DND-99) were used. Zeiss ZEN lite software (Carl Zeiss Microscopy GmbH, Jena, Germany) was used for image processing.
Parallel with flow cytometry measurements, confocal laser scanning microscopy images were also captured in order to assess qualitative information on intracellular localization. LysoTrackerTM Deep Red was used for lysosome and Hoechst 33342 for nuclear staining to distinguish subcellular localization of the Cf-peptide. […] Colocalization of Cf-peptide and LysoTracker may be subjectively identified by the cooccurrence, the simple spatial overlap which combined the contribution of both signals (green and red) when the images of each signal are superimposed (merged, see Supplementary Figure S3 ).
microscopy at the 10 µM Cf-peptide concentration (based on flow cytometry profile), and MonoMac6 cells were incubated for 2 hrs.
the visible differences among localization profiles of the Cf-peptides, we applied greyscale analysis of
the images and the evaluation was carried out on a representative peptide set.
were studied and the treatment, the staining and fixation process were carefully optimized to assess
Laser intensity values were identical in case of all Cf-peptides. ZEN 3.0 blue lite software
was used for image processing and grey scale values were extracted using NIH ImageJ software’s Plot

[3] = test system: CALU-1 monolayer / EBC-1 cells; format: in vitro ADME, human; conditions: Transwell, 0.4 µm polycarbonate, Cf-peptide apical 10 and 20 µM, 45 min, apical to basolateral; EBC-1 fluorescence read-out
Protocol: EBC-1 lung squamous carcinoma and CALU-1 human lung epidermoid carcinoma were seeded on 24-well plates with Transwell inserts (TW) [Nunc, Sigma polycarbonate microporous membrane, 0.4 µm pore size (growth area 0.412 cm^2)]. Before use, TW inserts were incubated with ICM. On day 1, 300 μl of CALU-1 suspension in complete DMEM medium (8.0 × 10^5 cells) was pipetted onto the surface of the TW apical chamber and 500 μl complete DMEM medium was added to the basolateral side. In order to avoid nonattached cells, after incubation at 37°C for 5–6 h, the apical medium was removed and replaced with fresh complete DMEM medium. […] On day 5, the medium was changed, then Cf-peptide was added to the CALU-1-containing apical side at 10 and 20 µM concentrations, and the system was incubated for 45 min or 3 h (37°C, 5% CO2). The TW chamber was removed after incubation. EBC-1 cells were studied using flow cytometry (BD LSR II).
EBC-1 cells were treated without the presence of the TW inserts as controls (on day 4 prior to treatment, EBC-1 cells (10^5 cells/well in complete DMEM). […]
Figure 7 The penetration ability of Cf-peptides was determined on Transwell bronchial interface, and the penetration rates were quantified by flow cytometry. […] The confluence of CALU-1 monolayer was monitored with CellTracker Green, and after development of stable green fluorescence, cells were imaged in situ. […]

[4] = format: in vitro ADME; conditions: rat liver lysosomal homogenate, 37 °C, LC-MS
Protocol: Next, we examined the enzymatic stability of two peptide conjugates in rat liver lysosomal homogenate (see Supplementary Information 2 for the method description). Peptides were dissolved at 0.025 µg/µl concentration then allowed to react with the lysosomal homogenate. Degradation of the conjugates was fast. […]
1.2 Lysosomal degradation studies
Enzymatic stability of INH-Dhvar4 and INH-Penetratin conjugates were assayed in rat liver lysosomal homogenate (protein content was 16.6 µg/µl). Peptides were dissolved in 0.2 M Sodium acetate buffer (pH=5.03) at 0.025 µg/µl concentration and added to the lysosomal homogenate to reach 1 : 1 protein / peptide ratio (37 °C, 600 rpm vortex) . At different time points (5 min, 30 min, 1 h, 6 h, 24 h) the reaction was stopped by the addition of 5 µl formic acid. Sampled were then measured by LC-MS using a Thermo Scientific Q Exactive Focus Hybrid Quadrupole -Orbitrap Mass Spectrometer (Suppl. Figu re 1). For chromatography, a Wa ters Acquity UPLC BEH C18 (1.7 µ, 150 × 2.1 mm) column was used with a flow rate of 300 µL/min applying a gradient elution from 2% to […]
(1 picture or pasted object on this page, not shown here)

Compound | Rt (retention time) [1] | other results
KWKLFKKIGAVLKVL-NH2 [CM15, reference compound] | 8.4 | –
N=C(N)NCCC[C@H](NC(=O)[C@H](CCCNC(=N)N)NC(=O)[C@H](CCCNC(=N)N)NC(=O)[C@H](CCC(N)=O)NC(=O)[C@H](CCCNC(=N)N)NC(=O)[C@H](CCCNC(=N)N)NC(=O)[C@H](CCCCN)NC(=O)[C@H](CCCCN)NC(=O)[C@H](CCCNC(=N)N)NC(=O)CNC(=O)[C@@H](N)Cc1ccc(O)cc1)C(N)=O [Tat, reference compound] | 0.9 | –
Cf-RAGLQFPVGRVHRLLRK [Cf-Buforin, 5(6)-carboxyfluorescein-labeled buforin] | 7.7 | Rt (retention time), second peak [1]: 7.8
Cf-AGYLLGKINLKALAALAKKIL [Cf-Penetratin, 5(6)-carboxyfluorescein-labeled penetratin] | – | Pearson's coefficient of colocalization with lysosomal staining [2]: 0.490
Cf-YGRKKRRQRRR [Cf-Tat, 5(6)-carboxyfluorescein-labeled Tat] | 4.6 | Rt (retention time), second peak [1]: 5.0
Cf-TKPKGTKPKGTKPKGTKPKG [Cf-OT20, 5(6)-carboxyfluorescein-labeled OT20] | 4.9 | Rt (retention time), second peak [1]: 5.0
TKPKGTKPKGTKPKGTKPKG-NH2 [OT20, reference compound] | 1.6 | –
Cf-YKQCHKKGGKKGSG [Cf-Crot(1-9,38-42), 5(6)-carboxyfluorescein-labeled Crot(1-9,38-42)] | 5.5 | Rt (retention time), second peak [1]: 5.8
CC[C@H](C)[C@H](NC(=O)[C@H](CCCCN)NC(=O)[C@@H](NC(=O)[C@H](CCC(N)=O)NC(=O)[C@@H](N)CCCNC(=N)N)[C@@H](C)CC)C(=O)N[C@@H](Cc1c[nH]c2ccccc12)C(=O)N[C@@H](Cc1ccccc1)C(=O)N[C@@H](CCC(N)=O)C(=O)N[C@@H](CC(N)=O)C(=O)N[C@@H](CCCNC(=N)N)C(=O)N[C@@H](CCCNC(=N)N)C(=O)N[C@@H](CCSC)C(=O)N[C@@H](CCCCN)C(=O)N[C@@H](Cc1c[nH]c2ccccc12)C(=O)N[C@@H](CCCCN)C(=O)N[C@@H](CCCCN)C(N)=O [Penetratin, reference compound] | 6.1 | penetration through CALU-1 monolayer and internalization into EBC-1 cells [3]: higher internalization rates
GIGKFLHSAKKFGKAFVGEIMNS-NH2 [Magainin, reference compound] | 8.2 | –
CC[C@H](C)[C@H](NC(=O)[C@H](CCCCN)NC(=O)[C@@H](NC(=O)[C@H](CCC(N)=O)NC(=O)[C@H](CCCNC(=N)N)NC(=O)CNNC(=O)c1ccncc1)[C@@H](C)CC)C(=O)N[C@@H](Cc1c[nH]c2ccccc12)C(=O)N[C@@H](Cc1ccccc1)C(=O)N[C@@H](CCC(N)=O)C(=O)N[C@@H](CC(N)=O)C(=O)N[C@@H](CCCNC(=N)N)C(=O)N[C@@H](CCCNC(=N)N)C(=O)N[C@@H](CCSC)C(=O)N[C@@H](CCCCN)C(=O)N[C@@H](Cc1c[nH]c2ccccc12)C(=O)N[C@@H](CCCCN)C(=O)N[C@@H](CCCCN)C(N)=O [INH-Penetratin] | – | peaks of the intact conjugates after 30 min of incubation ([4]; 0.2 M sodium acetate buffer pH 5.03, 0.025 µg/µl, 1:1 protein/peptide ratio): almost disappeared; most stable fragment (main peak after 24 h of incubation) ([4]; pH 5.03, 0.025 µg/µl): tetrapeptide (RQIK) with INH
Cf-GIGKFLHSAKKFGKAFVGEIMNS [Cf-Transportan, 5(6)-carboxyfluorescein-labeled transportan] | – | Pearson's coefficient of colocalization with lysosomal staining [2]: 0.823
Cf-KWKLFKKIGAVLKVL [Cf-CM15, 5(6)-carboxyfluorescein-labeled CM15] | 9.6 | Pearson's coefficient of colocalization with lysosomal staining [2]: 0.358; Rt (retention time), second peak [1]: 9.7
CC[C@H](C)[C@H](NC(=O)[C@H](CCCCN)NC(=O)[C@H](CCCCN)NC(=O)[C@H](C)NC(=O)[C@H](CC(C)C)NC(=O)[C@H](C)NC(=O)[C@H](C)NC(=O)[C@H](CC(C)C)NC(=O)[C@H](C)NC(=O)[C@H](CCCCN)NC(=O)[C@H](CC(C)C)NC(=O)[C@H](CC(N)=O)NC(=O)[C@@H](NC(=O)[C@H](CCCCN)NC(=O)CNC(=O)[C@H](CC(C)C)NC(=O)[C@H](CC(C)C)NC(=O)[C@H](Cc1ccc(O)cc1)NC(=O)CNC(=O)[C@H](C)N)[C@@H](C)CC)C(=O)N[C@@H](CC(C)C)C(N)=O [reference compound] | 10.6 | –
YKQCHKKGGKKGSG-NH2 [Crot(1-9,38-42), reference compound] | 0.8 | –
CC[C@H](C)[C@H](NC(=O)CN)C(=O)NCC(=O)N[C@@H](C)C(=O)N[C@H](C(=O)N[C@@H](CC(C)C)C(=O)N[C@@H](CCCCN)C(=O)N[C@H](C(=O)N[C@@H](CC(C)C)C(=O)N[C@H](C(=O)N[C@H](C(=O)NCC(=O)N[C@@H](CC(C)C)C(=O)N1CCC[C@H]1C(=O)N[C@@H](C)C(=O)N[C@@H](CC(C)C)C(=O)N[C@H](C(=O)N[C@@H](CO)C(=O)N[C@@H](Cc1c[nH]c2ccccc12)C(=O)N[C@H](C(=O)N[C@@H](CCCCN)C(=O)N[C@@H](CCCNC(=N)N)C(=O)N[C@@H](CCCCN)C(=O)N[C@@H](CCCNC(=N)N)C(=O)N[C@@H](CCC(N)=O)C(=O)N[C@@H](CCC(N)=O)C(N)=O)[C@@H](C)CC)[C@@H](C)CC)[C@@H](C)O)[C@@H](C)O)C(C)C)C(C)C [Melittin, reference compound] | 10.6 | –
RAGLQFPVGRVHRLLRK-NH2 [Buforin, reference compound] | 6.6 | –
Cf-GIGAVLKVLTTGLPALISWIKRKRQQ [Cf-Melittin, 5(6)-carboxyfluorescein-labeled melittin] | 12.2 | –
